Measured values as given in patent US9221832B2, “Heterocyclic amide derivatives as P2X7 receptor antagonists” (ACTELION PHARMACEUTICALS LTD., priority 2011, dated 2015).

What follows are molecules tested against human recombinant P2X7 receptor (Homo sapiens (Human), UniProt Q99572) (assay: YO-PRO assay: P2X7 receptor antagonistic activity). Conditions: HEK cells expressing human P2X7.
human recombinant P2X7 receptor, sequence (Q99572 whole entry): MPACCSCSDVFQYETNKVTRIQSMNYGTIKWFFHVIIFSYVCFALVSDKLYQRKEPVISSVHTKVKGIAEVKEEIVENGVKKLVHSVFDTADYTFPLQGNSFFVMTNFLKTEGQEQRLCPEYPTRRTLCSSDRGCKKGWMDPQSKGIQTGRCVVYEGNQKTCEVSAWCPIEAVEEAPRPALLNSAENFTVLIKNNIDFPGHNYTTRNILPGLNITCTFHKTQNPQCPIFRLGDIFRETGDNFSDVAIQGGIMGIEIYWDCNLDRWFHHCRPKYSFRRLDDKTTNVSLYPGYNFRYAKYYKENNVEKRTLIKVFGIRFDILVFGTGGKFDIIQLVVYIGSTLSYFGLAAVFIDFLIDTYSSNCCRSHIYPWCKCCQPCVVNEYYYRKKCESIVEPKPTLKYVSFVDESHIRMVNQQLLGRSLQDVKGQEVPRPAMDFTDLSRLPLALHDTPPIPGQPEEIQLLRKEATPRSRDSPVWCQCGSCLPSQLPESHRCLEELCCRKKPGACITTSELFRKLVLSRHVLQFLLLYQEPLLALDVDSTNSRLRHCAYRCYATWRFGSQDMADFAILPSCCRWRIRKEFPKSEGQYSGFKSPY
Type: cell-based
Procedure: The P2X7 receptor antagonistic activity of the compounds of formula (I) is determined in accordance with the following experimental method.
Cell Line Generation and YO-PRO Assay
Cell line generation was performed in general according to established molecular cloning protocols. Specifically, RNA was extracted from human whole blood using the Qiagen RNeasy kit (Qiagen, CH) according to the manufacturer's instructions. Subsequently cDNA was made (Superscript II, Invitrogen AG, CH) and the human P2X7 gene (genbank ref. BC011913) was amplified with the following primers: […] and […]. The amplified sequence was subsequently ligated into a pcDNA3.1 (+) NotI, NheI digested plasmid. […] Following a 24 h exposure to DNA, cells were trypsinized and re-seeded at low density in the presence of 250 μg Geneticin. Geneticin resistant cells were then selected during two consecutive rounds of cloning by serial limiting dilution with visual inspection. Individual clones were screened for P2X7 expression by applying ATP and recording the resultant uptake of YO-PRO1. Specific cell clones were chosen based on RNA and protein expression. HEK cells stably expressing P2X7 were used to screen drugs using the YO-PRO1 assay. Cells were grown to confluency in adherent culture at 37° C. in a humidified 5% CO2 incubator (split 1/5 every 3-4 days with DMEM, 10% FCS, 1% Penicillin/Streptomycin, 250 μg/ml Geneticin). Adherent cells were detached by incubation with Trypsine (1 ml per 165 cm^2 dish) for 2 minutes, then washed off with 10 ml PBS (without Mg^2+ and Ca^2+), and resuspended in DMEM, 10% FCS, 1% Penicillin/Streptomycin, no Geneticin. […] During this time period, four time points were taken. Each time point comprised the average of several measurements made within a few seconds. […] The FLIPR tetra was equipped with Molecular Devices Screen Works system control software to define and run experimental protocols. […] For IC50 measurements the maximum intensity is plotted against the concentration of compound to determine IC50 values.
`O=C(Cc1ccc(C(F)(F)F)cc1Cl)NC1COc2ncccc21` (racemic) [Example 88, rac-2-(2-Chloro-4-trifluoromethyl-phenyl)-N-(2,3-dihydro-furo[2,3-b]pyridin-3-yl)-acetamide] was tested, and the IC50 was 72 nM.
In the case of `O=C(Cc1cccc(C(F)(F)F)c1Cl)NC1COc2cnccc21` (racemic) [Example 87, rac-2-(2-Chloro-3-trifluoromethyl-phenyl)-N-(2,3-dihydro-furo[2,3-c]pyridin-3-yl)-acetamide], the IC50 is reported as 4.6 nM.
For `O=C(Cc1ccc(Cl)cc1C(F)(F)F)NC1COc2ncccc21` (racemic) [Example 35, rac-2-(4-Chloro-2-trifluoromethyl-phenyl)-N-(2,3-dihydro-furo[2,3-b]pyridin-3-yl)-acetamide], the IC50 was 193 nM.
`NC(=O)c1cccc(CC(=O)NC2COc3ncccc32)c1Cl` (racemic) [Example 80, rac-2-Chloro-3-[(2,3-dihydro-furo[2,3-b]pyridin-3-ylcarbamoyl)-methyl]-benzamide] showed an IC50 of 1240 nM.
`COc1ccc(CC(=O)NC2COc3ncccc32)c(F)c1` (racemic) [Example 20, rac-N-(2,3-Dihydro-furo[2,3-b]pyridin-3-yl)-2-(2-fluoro-4-methoxy-phenyl)-acetamide] was tested, and the IC50 was 578 nM.
With `N#Cc1cccc(CC(=O)NC2COc3ncccc32)c1C(F)(F)F` (racemic) [Example 113, rac-2-(3-Cyano-2-trifluoromethyl-phenyl)-N-(2,3-dihydro-furo[2,3-b]pyridin-3-yl)-acetamide] the IC50 was 28 nM.
`O=C(Cc1c(Cl)cc(Cl)cc1C(F)(F)F)NC1COc2ncccc21` (racemic) [Example 33, rac-2-(2,4-Dichloro-6-trifluoromethyl-phenyl)-N-(2,3-dihydro-furo[2,3-b]pyridin-3-yl)-acetamide] showed an IC50 of 242 nM.
In the case of `O=C(Cc1ccc(F)cc1F)NC1COc2ncccc21` (racemic) [Example 17, rac-2-(2,4-Difluoro-phenyl)-N-(2,3-dihydro-furo[2,3-b]pyridin-3-yl)-acetamide], the IC50 is reported as 522 nM.
`Cc1cc(Cl)cc(Cl)c1CC(=O)NC1CCOc2ncccc21` (single isomer, unassigned) [Example 29, 2-(2,4-Dichloro-6-methyl-phenyl)-N-(3,4-dihydro-2H-pyrano[2,3-b]pyridin-4-yl)-acetamide] was tested, and the IC50 was 172 nM.
With `O=C(Cc1cccc(C(F)(F)F)c1Cl)NC1COc2ncccc21` (single isomer, unassigned) [Example 74, 2-(2-Chloro-3-trifluoromethyl-phenyl)-N-(2,3-dihydro-furo[2,3-b]pyridin-3-yl)-acetamide] the IC50 was 4.7 nM.
`O=C(NC1COc2ncccc21)C1Cc2ccc(Cl)cc2C1` (centres unmarked) [Example 149, 5-chloro-N-(2,3-dihydrofuro[2,3-b]pyridin-3-yl)-2,3-dihydro-1H-indene-2-carboxamide] gave an IC50 of 4690 nM.
`O=C(Cc1ccc(F)cc1C(F)(F)F)NC1COc2ncccc21` (racemic) [Example 18, rac-N-(2,3-Dihydro-furo[2,3-b]pyridin-3-yl)-2-(4-fluoro-2-trifluoromethyl-phenyl)-acetamide] was tested, and the IC50 was 393 nM.
In the case of `N#Cc1ccc(CC(=O)NC2COc3ncccc32)cc1` (racemic) [Example 13, rac-2-(4-Cyano-phenyl)-N-(2,3-dihydro-furo[2,3-b]pyridin-3-yl)-acetamide], the IC50 is reported as over 5420 nM.
`O=C(NC1COc2ncccc21)C1CCc2cc(Cl)cc(Cl)c21` (single isomer, unassigned) [Example 146, 5,7-dichloro-N-(2,3-dihydrofuro[2,3-b]pyridin-3-yl)-2,3-dihydro-1H-indene-1-carboxamide] showed an IC50 of 160 nM.
`N#Cc1cc(Cl)cc(Cl)c1CC(=O)NC1COc2ncccc21` (racemic) [Example 37, rac-2-(2,4-Dichloro-6-cyano-phenyl)-N-(2,3-dihydro-furo[2,3-b]pyridin-3-yl)-acetamide] gave an IC50 of 324 nM.
Work on `O=C(Cc1ccc(Oc2ccccc2)cc1)NC1COc2ncccc21` (racemic) [Example 36, rac-N-(2,3-Dihydro-furo[2,3-b]pyridin-3-yl)-2-(4-phenoxy-phenyl)-acetamide] yielded an IC50 of 1480 nM.
In the case of `O=C(Cc1ccc(Oc2ccccc2)cc1)NC1CCOc2ncccc21` (racemic) [Example 48, rac-N-(3,4-Dihydro-2H-pyrano[2,3-b]pyridin-4-yl)-2-(4-phenoxy-phenyl)-acetamide], the IC50 is reported as 3300 nM.
For `Cc1ccc(F)c(CC(=O)NC2COc3ncccc32)c1Cl` (racemic) [Example 42, rac-2-(2-Chloro-6-fluoro-3-methyl-phenyl)-N-(2,3-dihydro-furo[2,3-b]pyridin-3-yl)-acetamide], the IC50 was 641 nM.
For `O=C(Cc1cccc(C(F)(F)F)c1Cl)NC1COc2c1ccc[n+]2[O-]` (racemic) [Example 129, rac-2-(2-Chloro-3-trifluoromethyl-phenyl)-N-(7-oxy-2,3-dihydro-furo[2,3-b]pyridin-3-yl)-acetamide], the IC50 was 123 nM.
`O=C(Cc1ccc(F)cc1F)NC1CCOc2ncccc21` (racemic) [Example 51, rac-2-(2,4-Difluoro-phenyl)-N-(3,4-dihydro-2H-pyrano[2,3-b]pyridin-4-yl)-acetamide] showed an IC50 of 1690 nM.
Molecule `O=C(Cc1c(Cl)cc(Cl)cc1C1CC1)NC1COc2ncccc21` (racemic) [Example 39, rac-2-(2,4-Dichloro-6-cyclopropyl-phenyl)-N-(2,3-dihydro-furo[2,3-b]pyridin-3-yl)-acetamide] has an IC50 of 54 nM.
Molecule `O=C(COc1ccc(Cl)c(Cl)c1)NC1COc2ncccc21` (racemic) [Example 141, rac-2-(3,4-Dichloro-phenoxy)-N-(2,3-dihydro-furo[2,3-b]pyridin-3-yl)-acetamide] has an IC50 of over 8630 nM.
Work on `CC(C(=O)NC1COc2ncccc21)c1ccc(Cl)cc1Cl` (centres unmarked) [Example 85, 2-(2,4-Dichloro-phenyl)-N-2,3-dihydro-furo[2,3-b]pyridin-3-yl-propionamide] yielded an IC50 of 15 nM.
`O=C(Cc1ccc(F)cc1C(F)(F)F)NC1CCOc2ncccc21` (racemic) [Example 52, rac-N-(3,4-Dihydro-2H-pyrano[2,3-b]pyridin-4-yl)-2-(4-fluoro-2-trifluoromethyl-phenyl)-acetamide] showed an IC50 of 1870 nM.
`O=C(Cc1c(F)ccc(Cl)c1Cl)NC1COc2ncccc21` (racemic) [Example 67, rac-2-(2,3-Dichloro-6-fluoro-phenyl)-N-(2,3-dihydro-furo[2,3-b]pyridin-3-yl)-acetamide] showed an IC50 of 210 nM.
`Cc1ccnn1CC(=O)NC1CCOc2ncccc21` (racemic) [Example 63, rac-N-(3,4-Dihydro-2H-pyrano[2,3-b]pyridin-4-yl)-2-(5-methyl-pyrazol-1-yl)-acetamide] was tested, and the IC50 was over 5720 nM.
For `O=C(NC1CCOc2ncccc21)C1(c2ccc(Cl)cc2Cl)CC1` (racemic) [Example 58, rac-1-(2,4-Dichloro-phenyl)-cyclopropanecarboxylic acid (3,4-dihydro-2H-pyrano[2,3-b]pyridin-4-yl)-amide], the IC50 was 294 nM.
`O=C(Cc1ccc(Cl)cc1)NC1COc2ncccc21` (racemic) [Example 15, rac-2-(4-Chloro-phenyl)-N-(2,3-dihydro-furo[2,3-b]pyridin-3-yl)-acetamide] showed an IC50 of 1410 nM.
`Cc1cc(Cl)cc(Cl)c1CC(=O)NC1COc2ncccc21` (single isomer, unassigned) [Example 6, 2-(2,4-Dichloro-6-methyl-phenyl)-N-(2,3-dihydro-furo[2,3-b]pyridin-3-yl)-acetamide] was tested, and the IC50 was 16 nM.
Molecule `O=C(Cc1cccc(C(F)(F)F)c1Cl)NC1CCOc2ncccc21` (racemic) [Example 49, rac-2-(2-Chloro-3-trifluoromethyl-phenyl)-N-(3,4-dihydro-2H-pyrano[2,3-b]pyridin-4-yl)-acetamide] has an IC50 of 17 nM.
With `O=C(Cc1cc(F)c(Cl)cc1Cl)NC1COc2ncccc21` (racemic) [Example 41, rac-2-(2,4-Dichloro-5-fluoro-phenyl)-N-(2,3-dihydro-furo[2,3-b]pyridin-3-yl)-acetamide] the IC50 was 332 nM.
`O=C(Cc1c(Cl)ccc(C(F)(F)F)c1Cl)NC1COc2ncccc21` (racemic) [Example 72, rac-2-(2,6-Dichloro-3-trifluoromethyl-phenyl)-N-(2,3-dihydro-furo[2,3-b]pyridin-3-yl)-acetamide] gave an IC50 of 1020 nM.
`Cc1nccc2c1OCC2NC(=O)Cc1ccc(Cl)cc1Cl` (racemic) [Example 100, rac-2-(2,4-Dichloro-phenyl)-N-(7-methyl-2,3-dihydro-furo[2,3-c]pyridin-3-yl)-acetamide] showed an IC50 of 52 nM.
For `O=C(Cc1cc(Cl)ccc1C(F)(F)F)NC1COc2ncccc21` (racemic) [Example 43, rac-2-(5-Chloro-2-trifluoromethyl-phenyl)-N-(2,3-dihydro-furo[2,3-b]pyridin-3-yl)-acetamide], the IC50 was 8050 nM.
In the case of `O=C(NC1CCOc2ncccc21)C1(c2ccc(F)cc2Cl)CCCC1` (racemic) [Example 59, rac-1-(2-Chloro-4-fluoro-phenyl)-cyclopentanecarboxylic acid (3,4-dihydro-2H-pyrano[2,3-b]pyridin-4-yl)-amide], the IC50 is reported as 390 nM.
